Article PMC8523698, “Preclinical characterization of an intravenous coronavirus 3CL protease inhibitor for the potential treatment of COVID19” (Nature Communications, 2021)
Several values for one entry are separate records, joined by “and”; a condition that tells them apart may be missing. Equal values may be shown once. Read-outs that look alike come from different tables or passages of the source.

How the values were obtained:
[1] = Plasma protein binding by equilibrium dialysis; conditions: dog plasma, 3.44 uM; for fraction unbound at 6 h, 3.44 uM: dog, plasma
hERG channel = hERG channel (Homo sapiens, UniProt Q12809); test: hERG potassium channel current assay
hERG channel, sequence (Q12809 whole entry): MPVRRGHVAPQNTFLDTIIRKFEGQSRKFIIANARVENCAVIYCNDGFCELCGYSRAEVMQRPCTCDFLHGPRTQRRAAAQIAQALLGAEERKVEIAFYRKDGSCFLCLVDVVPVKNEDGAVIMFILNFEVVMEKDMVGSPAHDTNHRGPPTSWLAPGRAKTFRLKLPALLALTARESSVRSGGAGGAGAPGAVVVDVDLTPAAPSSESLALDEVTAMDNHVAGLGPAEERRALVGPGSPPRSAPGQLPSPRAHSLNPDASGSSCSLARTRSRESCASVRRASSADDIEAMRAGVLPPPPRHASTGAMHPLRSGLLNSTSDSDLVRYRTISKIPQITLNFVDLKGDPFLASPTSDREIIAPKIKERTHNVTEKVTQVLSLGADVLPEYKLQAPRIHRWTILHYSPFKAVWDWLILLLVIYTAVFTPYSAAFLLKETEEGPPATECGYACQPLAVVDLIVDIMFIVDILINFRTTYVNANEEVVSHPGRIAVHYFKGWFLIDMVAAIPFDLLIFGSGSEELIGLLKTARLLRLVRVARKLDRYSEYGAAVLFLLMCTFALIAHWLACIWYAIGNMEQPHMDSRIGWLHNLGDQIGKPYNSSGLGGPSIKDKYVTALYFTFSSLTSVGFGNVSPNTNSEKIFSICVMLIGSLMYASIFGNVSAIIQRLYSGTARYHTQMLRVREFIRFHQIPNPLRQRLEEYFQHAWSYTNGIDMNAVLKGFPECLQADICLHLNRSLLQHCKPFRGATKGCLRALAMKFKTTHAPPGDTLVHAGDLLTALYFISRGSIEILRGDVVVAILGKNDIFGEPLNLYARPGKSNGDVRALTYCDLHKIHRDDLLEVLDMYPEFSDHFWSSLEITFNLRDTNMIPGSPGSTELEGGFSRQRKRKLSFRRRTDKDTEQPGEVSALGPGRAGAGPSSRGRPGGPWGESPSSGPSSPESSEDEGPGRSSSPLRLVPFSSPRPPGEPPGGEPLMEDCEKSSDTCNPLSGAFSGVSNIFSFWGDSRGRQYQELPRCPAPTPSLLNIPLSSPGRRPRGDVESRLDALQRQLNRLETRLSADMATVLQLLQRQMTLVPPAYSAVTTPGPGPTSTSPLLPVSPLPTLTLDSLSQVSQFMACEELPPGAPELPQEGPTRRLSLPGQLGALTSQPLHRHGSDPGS

MDR1/P-gp = MDR1/P-gp (Homo sapiens, UniProt P08183); test: Transporter inhibition using membrane vesicles; conditions: for % PGP Uptake Activity: uptake of N-methyl quinidine by MDR1, single replicates
MDR1/P-gp, sequence (P08183 whole entry): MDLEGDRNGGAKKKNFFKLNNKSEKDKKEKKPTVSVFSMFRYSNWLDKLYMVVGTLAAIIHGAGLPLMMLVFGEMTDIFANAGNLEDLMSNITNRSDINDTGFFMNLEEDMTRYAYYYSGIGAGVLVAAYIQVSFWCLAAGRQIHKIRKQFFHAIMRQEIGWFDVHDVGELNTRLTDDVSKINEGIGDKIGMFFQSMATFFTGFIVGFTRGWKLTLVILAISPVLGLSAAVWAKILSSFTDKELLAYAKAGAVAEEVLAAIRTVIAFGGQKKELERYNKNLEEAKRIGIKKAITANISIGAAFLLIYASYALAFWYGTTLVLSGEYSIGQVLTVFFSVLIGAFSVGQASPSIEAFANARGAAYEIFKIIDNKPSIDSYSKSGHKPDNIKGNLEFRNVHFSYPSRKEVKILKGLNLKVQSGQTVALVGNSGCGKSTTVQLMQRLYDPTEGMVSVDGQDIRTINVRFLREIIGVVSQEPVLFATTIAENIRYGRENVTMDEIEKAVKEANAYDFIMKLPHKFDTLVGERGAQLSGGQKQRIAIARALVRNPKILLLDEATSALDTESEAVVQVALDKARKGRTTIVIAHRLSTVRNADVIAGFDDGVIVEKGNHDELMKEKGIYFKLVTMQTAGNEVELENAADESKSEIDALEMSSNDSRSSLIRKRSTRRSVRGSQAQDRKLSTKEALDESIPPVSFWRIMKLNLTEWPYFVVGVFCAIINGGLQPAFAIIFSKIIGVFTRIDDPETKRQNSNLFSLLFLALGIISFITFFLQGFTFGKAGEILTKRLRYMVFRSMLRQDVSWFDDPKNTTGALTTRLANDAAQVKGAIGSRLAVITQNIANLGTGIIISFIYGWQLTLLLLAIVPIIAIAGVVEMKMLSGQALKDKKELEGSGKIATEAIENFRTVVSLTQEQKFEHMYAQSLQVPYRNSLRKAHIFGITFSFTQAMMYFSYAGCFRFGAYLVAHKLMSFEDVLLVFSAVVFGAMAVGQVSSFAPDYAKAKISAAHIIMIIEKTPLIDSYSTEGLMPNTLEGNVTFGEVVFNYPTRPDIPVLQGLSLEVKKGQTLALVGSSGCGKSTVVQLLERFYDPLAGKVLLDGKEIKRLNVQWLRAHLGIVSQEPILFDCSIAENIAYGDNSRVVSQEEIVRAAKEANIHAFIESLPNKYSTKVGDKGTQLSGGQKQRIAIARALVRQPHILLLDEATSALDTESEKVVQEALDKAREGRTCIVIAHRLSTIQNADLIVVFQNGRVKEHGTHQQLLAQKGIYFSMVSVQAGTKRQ

CYP3A4/5 = test: in vitro; conditions: human, microsomes, pH 7.4, Percent of Control Activity, CYP 3A4/5 (mdz)
CYP2C19 = CYP2C19 (Homo sapiens, UniProt P33261); test: Reversible CYP inhibition in human liver microsomes; conditions: for activity at 0.01 µM / activity at 0.158 µM / activity at 0.398 µM / activity at 1 µM / activity at 15.8 µM / activity at 39.8 µM / activity at 100 µM: human, microsomes, pH 7.4, Percent of Control Activity; for activity at 39.8 µM: CYP 2C19, 39.8 µM
CYP2C19, sequence (P33261 whole entry): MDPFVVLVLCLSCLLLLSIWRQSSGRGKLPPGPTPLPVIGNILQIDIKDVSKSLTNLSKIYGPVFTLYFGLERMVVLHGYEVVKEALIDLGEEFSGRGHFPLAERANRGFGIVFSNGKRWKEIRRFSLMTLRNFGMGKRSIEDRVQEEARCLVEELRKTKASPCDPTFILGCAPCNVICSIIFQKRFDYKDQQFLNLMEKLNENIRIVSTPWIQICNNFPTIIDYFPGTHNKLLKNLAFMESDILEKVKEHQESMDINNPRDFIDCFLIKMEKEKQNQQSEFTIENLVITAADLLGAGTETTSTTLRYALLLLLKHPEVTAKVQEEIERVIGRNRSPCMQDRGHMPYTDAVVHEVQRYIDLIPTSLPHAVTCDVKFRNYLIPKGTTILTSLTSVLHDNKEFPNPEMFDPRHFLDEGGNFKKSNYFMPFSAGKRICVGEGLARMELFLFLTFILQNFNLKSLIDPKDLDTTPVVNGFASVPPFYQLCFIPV

OAT1 = molecular target: T1, OAT1 (Homo sapiens, UniProt Q4U2R8); test: Transporter inhibition using transfected HEK293 cells; conditions: IC50, [3H]PAH (0.5 µM)
T1 sequence (Q4U2R8 1-563): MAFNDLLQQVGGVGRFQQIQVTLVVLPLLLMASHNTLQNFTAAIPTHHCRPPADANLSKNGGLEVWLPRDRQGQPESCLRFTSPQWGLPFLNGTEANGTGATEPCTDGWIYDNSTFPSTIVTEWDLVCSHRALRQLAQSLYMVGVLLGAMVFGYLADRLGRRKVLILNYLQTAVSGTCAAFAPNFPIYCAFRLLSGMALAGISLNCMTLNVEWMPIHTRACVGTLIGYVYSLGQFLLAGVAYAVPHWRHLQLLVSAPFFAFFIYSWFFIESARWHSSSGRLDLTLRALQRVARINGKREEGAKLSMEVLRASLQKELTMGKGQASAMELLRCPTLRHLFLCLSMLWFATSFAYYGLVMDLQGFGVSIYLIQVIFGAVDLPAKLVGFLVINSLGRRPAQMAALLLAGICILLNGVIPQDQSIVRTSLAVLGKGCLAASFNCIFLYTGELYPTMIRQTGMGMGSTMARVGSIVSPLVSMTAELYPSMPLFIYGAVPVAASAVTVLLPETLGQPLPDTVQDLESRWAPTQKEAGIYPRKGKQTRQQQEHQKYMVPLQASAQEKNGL

CYP2D6 = CYP2D6 (Homo sapiens, UniProt P10635); test: Reversible CYP inhibition in human liver microsomes
CYP2D6, sequence (P10635 whole entry): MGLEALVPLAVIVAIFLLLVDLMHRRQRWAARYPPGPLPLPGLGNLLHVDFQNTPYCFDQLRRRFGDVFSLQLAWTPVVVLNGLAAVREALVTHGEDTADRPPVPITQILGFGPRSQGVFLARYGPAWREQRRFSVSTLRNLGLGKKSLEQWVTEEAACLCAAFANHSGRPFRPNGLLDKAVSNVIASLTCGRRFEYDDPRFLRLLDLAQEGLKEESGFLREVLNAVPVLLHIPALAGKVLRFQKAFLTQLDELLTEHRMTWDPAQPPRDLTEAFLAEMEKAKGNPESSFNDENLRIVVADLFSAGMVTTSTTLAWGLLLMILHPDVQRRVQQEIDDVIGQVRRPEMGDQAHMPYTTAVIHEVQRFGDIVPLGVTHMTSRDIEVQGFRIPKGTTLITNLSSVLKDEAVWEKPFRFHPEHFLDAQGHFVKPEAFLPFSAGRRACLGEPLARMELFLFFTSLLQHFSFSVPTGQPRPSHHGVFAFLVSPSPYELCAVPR

## COc1cccc2[nH]c(C(=O)N[C@@H](CC(C)C)C(=O)N[C@@H](C[C@@H]3CCNC3=O)C(=O)COP(=O)(O)O)cc12 [PF-07304814]
[1]; both, Beagle, pH 7.4, Individual fraction unbound, Beagle, male and female, Day 1
  fraction unbound at 6 h, 3.44 uM: 0.322
[1]; both, Beagle, pH 7.4, Individual fraction unbound, Beagle, male and female, Day 2
  fraction unbound at 6 h, 3.44 uM: 0.344
[1]; both, Beagle, pH 7.4, Individual fraction unbound, Beagle, male and female, Day 3
  fraction unbound at 6 h, 3.44 uM: 0.303
[1]; Beagle, male and female, Day 1
  Individual fraction unbound: 0.288 and 0.267 and 0.276
[1]; Beagle, male and female, Day 2
  Individual fraction unbound: 0.33 and 0.389 and 0.349
[1]; Beagle, male and female, Day 3
  Individual fraction unbound: 0.301 and 0.285 and 0.313
[1]; pH 7.4, fraction unbound Geomean, n=12
  fraction unbound at 6 h, 3.44 uM: 0.312
hERG channel; 300 µM vs projected Cmax at projected human efficacious dose
  hERG margin in reference to projected unbound human Cmax: 1,770 fold
hERG channel; human
  concentration up to which hERG current amplitude was not inhibited: 300 µM
MDR1/P-gp; IC50, N-methyl quinidine (0.2 µM)
  IC50: > 300 µM
MDR1/P-gp; inhibitor concentration 0.0732 uM
  % PGP Uptake Activity: 123.862% and 96.8629% and 149.319%
MDR1/P-gp; inhibitor concentration 0.2930 uM
  % PGP Uptake Activity: 106.737% and 95.0116% and 107.663%
MDR1/P-gp; inhibitor concentration 1.1719 uM
  % PGP Uptake Activity: 108.588% and 115.068% and 109.514%
MDR1/P-gp; inhibitor concentration 4.6875 uM
  % PGP Uptake Activity: 120.159% and 118.308% and 119.234%
MDR1/P-gp; inhibitor concentration 18.7500 uM
  % PGP Uptake Activity: 122.011% and 113.68% and 118.308%
MDR1/P-gp; inhibitor concentration 300.0000 uM
  % PGP Uptake Activity: 73.875% and 64.7724% and 99.64%
CYP3A4/5; 30-Minute Preincubation
  activity at 0.01 µM: 99.4%
  activity at 0.158 µM: 102%
  activity at 0.398 µM: 101%
  activity at 1 µM: 99.2%
  activity at 15.8 µM: 97.5%
  activity at 39.8 µM: 97%
  activity at 100 µM: 99.2%
CYP3A4/5; Zero-Minute Preincubation
  activity at 0.01 µM: 102%
  activity at 0.158 µM: 99.1%
  activity at 0.398 µM: 99.3%
  activity at 1 µM: 100%
  activity at 15.8 µM: 102%
  activity at 39.8 µM: 100%
  activity at 100 µM: 101%
CYP2C19
  IC50: > 100 µM
CYP2C19; CYP 2C19, 0.01 µM, Zero-Minute Preincubation, 0.01 µM
  Percent of Control Activity: 94.2%
CYP2C19; CYP 2C19, 0.158 µM, 30-Minute Preincubation, 0.158 µM
  Percent of Control Activity: 96.4%
CYP2C19; CYP 2C19, 0.158 µM, Zero-Minute Preincubation, 0.158 µM
  Percent of Control Activity: 101.4%
CYP2C19; CYP 2C19, 0.398 µM, 30-Minute Preincubation, 0.398 µM
  Percent of Control Activity: 100.7%
CYP2C19; CYP 2C19, 0.398 µM, Zero-Minute Preincubation, 0.398 µM
  Percent of Control Activity: 97.9%
CYP2C19; CYP 2C19, 1 µM, 30-Minute Preincubation, 1 µM
  Percent of Control Activity: 97.8%
CYP2C19; CYP 2C19, 1 µM, Zero-Minute Preincubation, 1 µM
  Percent of Control Activity: 102.1%
CYP2C19; CYP 2C19, 15.8 µM, 30-Minute Preincubation, 15.8 µM
  Percent of Control Activity: 97.1%
CYP2C19; CYP 2C19, 15.8 µM, Zero-Minute Preincubation, 15.8 µM
  Percent of Control Activity: 107.2% and 102.9%
CYP2C19; CYP 2C19, 100 µM, 30-Minute Preincubation, 100 µM
  Percent of Control Activity: 97.8% and 97.1%
CYP2C19; S-Mephenytoin 4′-hydroxylation, T0
  IC50: > 100 µM
CYP2C19; CYP 2C19, 0.01 µM, 30-Minute Preincubation
  activity at 0.01 µM: 103%
CYP2C19; CYP 2C19, 0.01 µM, Zero-Minute Preincubation
  activity at 0.01 µM: 99.3%
CYP2C19; CYP 2C19, 0.158 µM, 30-Minute Preincubation
  activity at 0.158 µM: 100%
CYP2C19; CYP 2C19, 0.158 µM, Zero-Minute Preincubation
  activity at 0.158 µM: 94.4%
CYP2C19; CYP 2C19, 0.398 µM, 30-Minute Preincubation
  activity at 0.398 µM: 102%
CYP2C19; CYP 2C19, 0.398 µM, Zero-Minute Preincubation
  activity at 0.398 µM: 96.5%
CYP2C19; CYP 2C19, 1 µM, 30-Minute Preincubation
  activity at 1 µM: 101%
CYP2C19; CYP 2C19, 1 µM, Zero-Minute Preincubation
  activity at 1 µM: 95.8%
CYP2C19; CYP 2C19, 15.8 µM, 30-Minute Preincubation
  activity at 15.8 µM: 102%
CYP2C19; CYP 2C19, 15.8 µM, Zero-Minute Preincubation
  activity at 15.8 µM: 104%
CYP2C19; 30-Minute Preincubation
  activity at 39.8 µM: 97.7%
CYP2C19; Zero-Minute Preincubation
  activity at 39.8 µM: 94.4%
CYP2C19; CYP 2C19, 100 µM, 30-Minute Preincubation
  activity at 100 µM: 95.5%
CYP2C19; CYP 2C19, 100 µM, Zero-Minute Preincubation
  activity at 100 µM: 91.5%
OAT1
  IC50: > 300 µM
CYP2D6
  IC50: > 100 µM
CYP2D6; CYP 2D6, 0.01 µM, 30-Minute Preincubation, 0.01 µM
  Percent of Control Activity: 97.3% and 99.6%
CYP2D6; CYP 2D6, 0.01 µM, Zero-Minute Preincubation, 0.01 µM
  Percent of Control Activity: 101.0% and 93.7%
CYP2D6; CYP 2D6, 0.158 µM, 30-Minute Preincubation, 0.158 µM
  Percent of Control Activity: 96.0%
CYP2D6; CYP 2D6, 0.158 µM, Zero-Minute Preincubation, 0.158 µM
  Percent of Control Activity: 97.1% and 95.4%
CYP2D6; CYP 2D6, 0.398 µM, 30-Minute Preincubation, 0.398 µM
  Percent of Control Activity: 95.2% and 103.0%
CYP2D6; CYP 2D6, 0.398 µM, Zero-Minute Preincubation, 0.398 µM
  Percent of Control Activity: 98.0% and 97.1%
CYP2D6; CYP 2D6, 1 µM, 30-Minute Preincubation, 1 µM
  Percent of Control Activity: 95.2% and 99.6%
CYP2D6; CYP 2D6, 1 µM, Zero-Minute Preincubation, 1 µM
  Percent of Control Activity: 94.2%
CYP2D6; CYP 2D6, 15.8 µM, 30-Minute Preincubation, 15.8 µM
  Percent of Control Activity: 101.2% and 99.3%
CYP2D6; CYP 2D6, 15.8 µM, Zero-Minute Preincubation, 15.8 µM
  Percent of Control Activity: 97.0%
CYP2D6; CYP 2D6, 39.8 µM, 30-Minute Preincubation, 39.8 µM
  Percent of Control Activity: 99.9% and 102.0%
CYP2D6; CYP 2D6, 39.8 µM, Zero-Minute Preincubation, 39.8 µM
  Percent of Control Activity: 95.5% and 101.2%
CYP2D6; CYP 2D6, 100 µM, 30-Minute Preincubation, 100 µM
  Percent of Control Activity: 93.7% and 95.4%
CYP2D6; CYP 2D6, 100 µM, Zero-Minute Preincubation, 100 µM
  Percent of Control Activity: 68.1% and 92.0% and 98.1%
CYP2D6; Dextromethorphan O-demethylation, T0
  IC50: > 100 µM
CYP2D6; human, microsomes, pH 7.4, Percent of Control Activity, CYP 2D6, 0.01 µM, 30-Minute Preincubation
  activity at 0.01 µM: 101%
CYP2D6; human, microsomes, pH 7.4, Percent of Control Activity, CYP 2D6, 0.01 µM, Zero-Minute Preincubation
  activity at 0.01 µM: 99.1%
CYP2D6; human, microsomes, pH 7.4, Percent of Control Activity, CYP 2D6, 0.158 µM, 30-Minute Preincubation
  activity at 0.158 µM: 103%
CYP2D6; human, microsomes, pH 7.4, Percent of Control Activity, CYP 2D6, 0.158 µM, Zero-Minute Preincubation
  activity at 0.158 µM: 102%
CYP2D6; human, microsomes, pH 7.4, Percent of Control Activity, CYP 2D6, 0.398 µM, 30-Minute Preincubation
  activity at 0.398 µM: 103%
CYP2D6; human, microsomes, pH 7.4, Percent of Control Activity, CYP 2D6, 0.398 µM, Zero-Minute Preincubation
  activity at 0.398 µM: 101%
CYP2D6; human, microsomes, pH 7.4, Percent of Control Activity, CYP 2D6, 1 µM, 30-Minute Preincubation
  activity at 1 µM: 104%
CYP2D6; human, microsomes, pH 7.4, Percent of Control Activity, CYP 2D6, 1 µM, Zero-Minute Preincubation
  activity at 1 µM: 98.7%
CYP2D6; human, microsomes, pH 7.4, Percent of Control Activity, CYP 2D6, 15.8 µM, 30-Minute Preincubation
  activity at 15.8 µM: 102%
CYP2D6; human, microsomes, pH 7.4, Percent of Control Activity, CYP 2D6, 15.8 µM, Zero-Minute Preincubation
  activity at 15.8 µM: 106%
CYP2D6; human, microsomes, pH 7.4, Percent of Control Activity, CYP 2D6, 39.8 µM, 30-Minute Preincubation
  activity at 39.8 µM: 102%
CYP2D6; human, microsomes, pH 7.4, Percent of Control Activity, CYP 2D6, 39.8 µM, Zero-Minute Preincubation
  activity at 39.8 µM: 102%
CYP2D6; human, microsomes, pH 7.4, Percent of Control Activity, CYP 2D6, 100 µM, 30-Minute Preincubation
  activity at 100 µM: 102%
